# In US20090022684A1, “Methods for hematopoietic stimulation” (priority 2006, published 2009):
# Like-named read-outs stand apart in the source and are kept apart here. Positions of bridges follow the written chain, without caps; N, C: chain ends. Residues, ends and D or L forms follow the SMILES beside them.
# Assay: Phase I clinical trial: plasma pharmacokinetics of the peptide
# Type: in vivo, human
# Conditions: for Dose Proportionality Day 1 AUC(0-tlast)/Dose / Dose Proportionality Day 1 Cmax/Dose / Dose Proportionality Day 7 AUC(0-τ)/Dose / Dose Proportionality Day 7 Cmax/Dose / Tmax / Cmax / half-life / AUC(0-t) / AUC / AUC(0-inf) / Vd/F / CL/F: plasma; for Tmax / Cmax / half-life / AUC(0-t) / AUC / AUC(0-inf) / Vd/F / CL/F: human, sc; for AUC(0-t): read-out: AUC(0-tlast); for AUC: read-out: AUC(0-τ); for Vd/F: read-out: Vz/F
# Procedure: A Phase I, single-center, randomized double blind, placebo-controlled, multiple-escalating-dose study in healthy older volunteers was carried out for the peptide [Leu^27]cyclo(Glu^22-Lys^2 1)-hPTH-(1-31)-NH2 (SEQ ID NO: 4). Subjects were healthy males and females (non-reproductive potential), aged 40 to 65 years. […] […] For each dosage level, 2 subjects (I male and I female) received placebo and 6 subjects (3 males and 3 females) received the peptide daily.
# Pharmacokinetics. Plasma concentrations of the peptide were analyzed using the WinNonlin 4.0 Noncompartmental module (Pharsight Inc., Mountainview, Calif.) or equivalent. The following pharmacokinetic parameters were computed from the peptide plasma concentration-time data (See FIGS. 4 and 5): • AUC(0-tlast): The area under the plasma concentration versus time curve, from time 0 to the last measurable concentration, as calculated by the linear trapezoidal method (Day 1). • AUC(0-τ): The area under the plasma concentration versus time curve, from time 0 to the last measurable concentration, as calculated by the linear trapezoidal method (Day 7). • AUC(0-∞) or AUCinf: The area under the plasma concentration versus time curve from time 0 to infinity. AUC(0-∞) is calculated as the sum of the AUC(0-tlast) plus the ratio of the last measurable plasma concentration to the elimination rate constant (Clast/kel), where Clast is the predicted concentration at the time of the last measurable concentration, as determined by linear regression, and kel is the apparent first-order elimination rate constant (Day 1). • AUC/AUCinf: The ratio of AUC(0-tlast) to AUC(0-∞). • Cmax: Maximum measured plasma concentration over the time span specified. • Tmax: Time of the maximum measured plasma concentration. If the maximum value occurs at more than one time point, Tmax is defined as the first time point with this value. • kel: Apparent first-order terminal elimination rate constant calculated from a semi-log plot of the plasma concentration versus time curve. This parameter was calculated by linear least squares regression analysis using the maximum number of points in the terminal log-linear phase (e.g. three or more non-zero plasma concentrations). • t1/2: The apparent first-order terminal elimination half-life was calculated as 0.693/kel. • Vz/F: Apparent volume of distribution of a drug following subcutaneous administration, calculated as Dose/( AUC(0-∞)·kel), (Day 1). • CL/F: Apparent total body clearance of a drug following […], calculated as Dose/AUC(0-∞), (Day 1).
# Accumulation Index: Calculated as AUC(0-τ) Day 7/AUC(0-tlast) Day 1.
# [1] = both sexes, 10 ug, Day 1, 10 μg s.c., geometric mean (CV %)
# [2] = both sexes, 10 ug, Day 7, 10 μg s.c. daily, geometric mean (CV %)
# [3] = both sexes, 20 ug, Day 1, 20 μg s.c., geometric mean (CV %)
# [4] = both sexes, 20 ug, Day 7, 20 μg s.c. daily, geometric mean (CV %)
# [5] = both sexes, 40 ug, Day 1, 40 μg s.c., geometric mean (CV %)
# [6] = both sexes, 40 ug, Day 7, 40 μg s.c. daily, geometric mean (CV %)
# [7] = both sexes, 60 ug, Day 1, 60 μg s.c., arithmetic mean (CV %)
# [8] = both sexes, 60 ug, Day 1, 60 μg s.c., geometric mean (CV %)
# [9] = both sexes, 60 ug, Day 7, 60 μg s.c. daily, geometric mean (CV %)
# [10] = both sexes, 80 ug, Day 1, 80 μg s.c., arithmetic mean (CV %)
# [11] = both sexes, 80 ug, Day 1, 80 μg s.c., geometric mean (CV %)
# [12] = both sexes, 80 ug, Day 7, 80 μg s.c. daily, geometric mean (CV %)
# [13] = both sexes, 20 ug, Day 1, 20 μg s.c., n = 1
# [14] = both sexes, 40 ug, Day 1, 40 μg s.c., n = 1
structure (smiles),measurement,setting,value
CC[C@H](C)[C@H](NC(=O)[C@H](CCC(=O)O)NC(=O)[C@H](CO)NC(=O)[C@@H](NC(=O)[C@@H](N)CO)C(C)C)C(=O)N[C@@H](CCC(N)=O)C(=O)N[C@@H](CC(C)C)C(=O)N[C@@H](CCSC)C(=O)N[C@@H](Cc1c[nH]cn1)C(=O)N[C@@H](CC(N)=O)C(=O)N[C@@H](CC(C)C)C(=O)NCC(=O)N[C@@H](CCCCN)C(=O)N[C@@H](Cc1c[nH]cn1)C(=O)N[C@@H](CC(C)C)C(=O)N[C@@H](CC(N)=O)C(=O)N[C@@H](CO)C(=O)N[C@@H](CCSC)C(=O)N[C@@H](CCC(=O)O)C(=O)N[C@@H](CCCN=C(N)N)C(=O)N[C@H](C(=O)N[C@H]1CCC(=O)NCCCC[C@@H](C(=O)N[C@@H](CC(C)C)C(=O)N[C@@H](CC(C)C)C(=O)N[C@@H](CCC(N)=O)C(=O)N[C@@H](CC(=O)O)C(=O)N[C@H](C(N)=O)C(C)C)NC(=O)[C@H](CCCN=C(N)N)NC(=O)[C@H](CC(C)C)NC(=O)[C@H](Cc2c[nH]c3ccccc23)NC1=O)C(C)C [[Leu^27]cyclo(Glu^22-Lys^26)-hPTH-(1-31)-NH2] (H-SVSEIQLMHNLGKHLNSMERVEWLRKLLQDV-NH2; lactam 22-26),accumulation,"20 μg, 60 μg and 80 μg dose levels",no observed accumulation
same,Dose Proportionality Day 1 AUC(0-tlast)/Dose,Dose Level 10 μg,1.08
same,Dose Proportionality Day 1 Cmax/Dose,Dose Level 10 μg,2.35
same,Dose Proportionality Day 7 AUC(0-τ)/Dose,Dose Level 10 μg,2.06
same,Dose Proportionality Day 7 Cmax/Dose,Dose Level 10 μg,3.13
same,Dose Proportionality Day 1 AUC(0-tlast)/Dose,Dose Level 20 μg,1.10
same,Dose Proportionality Day 1 Cmax/Dose,Dose Level 20 μg,1.66
same,Dose Proportionality Day 7 AUC(0-τ)/Dose,Dose Level 20 μg,1.14
same,Dose Proportionality Day 7 Cmax/Dose,Dose Level 20 μg,1.95
same,Dose Proportionality Day 1 AUC(0-tlast)/Dose,Dose Level 30 μg,3.30
same,Dose Proportionality Day 1 Cmax/Dose,Dose Level 30 μg,2.92
same,Dose Proportionality Day 7 AUC(0-τ)/Dose,Dose Level 30 μg,3.58
same,Dose Proportionality Day 7 Cmax/Dose,Dose Level 30 μg,3.18
same,Dose Proportionality Day 1 AUC(0-tlast)/Dose,Dose Level 40 μg,1.89
same,Dose Proportionality Day 1 Cmax/Dose,Dose Level 40 μg,2.68
same,Dose Proportionality Day 7 AUC(0-τ)/Dose,Dose Level 40 μg,2.68
same,Dose Proportionality Day 7 Cmax/Dose,Dose Level 40 μg,3.19
same,Dose Proportionality Day 1 AUC(0-tlast)/Dose,Dose Level 60 μg,1.61
same,Dose Proportionality Day 1 Cmax/Dose,Dose Level 60 μg,1.85
same,Dose Proportionality Day 7 AUC(0-τ)/Dose,Dose Level 60 μg,1.96
same,Dose Proportionality Day 7 Cmax/Dose,Dose Level 60 μg,2.21
same,Tmax,"both sexes, 10 ug, Day 1, 10 μg s.c., arithmetic mean (CV %)",15 min
same,Cmax,[1],0.0235 ng/mL
same,Tmax,"both sexes, 10 ug, Day 7, 10 μg s.c. daily, arithmetic mean (CV %)",15 min
same,Cmax,[2],0.0313 ng/mL
same,Tmax,"both sexes, 20 ug, Day 1, 20 μg s.c., arithmetic mean (CV %)",20 min
same,Cmax,[3],0.0332 ng/mL
same,Tmax,"both sexes, 20 ug, Day 7, 20 μg s.c. daily, arithmetic mean (CV %)",25 min
same,Cmax,[4],0.0391 ng/mL
same,Tmax,"both sexes, 40 ug, Day 1, 40 μg s.c., arithmetic mean (CV %)",20.3 min
same,Cmax,[5],0.107 ng/mL
same,Tmax,"both sexes, 40 ug, Day 7, 40 μg s.c. daily, arithmetic mean (CV %)",15 min
same,Cmax,[6],0.128 ng/mL
same,Tmax,[7],17.6 min
same,Cmax,[8],0.111 ng/mL
same,Tmax,"both sexes, 60 ug, Day 7, 60 μg s.c. daily, arithmetic mean (CV %)",15 min
same,Cmax,[9],0.133 ng/mL
same,Tmax,[10],24 min
same,Cmax,[11],0.234 ng/mL
same,Tmax,"both sexes, 80 ug, Day 7, 80 μg s.c. daily, arithmetic mean (CV %)",15.7 min
same,Cmax,[12],0.254 ng/mL
same,half-life,"both sexes, from 20 μg dose to 80 μg dose, s.c., read-out: mean t1/2 across dose groups",32.8 to 46.7 min
same,AUC(0-t),[1],0.0108 ng·h/mL
same,AUC,[2],0.0206 ng·h/mL
same,AUC(0-t),[3],0.022 ng·h/mL
same,AUC(0-inf),[13],0.092 ng·h/mL
same,Vd/F,[13],171 L
same,half-life,"both sexes, 20 ug, Day 1, 20 μg s.c., n = 1, read-out: t½ (converted)",32.8 min
same,AUC,[4],0.0228 ng·h/mL
same,AUC(0-t),[5],0.0755 ng·h/mL
same,AUC(0-inf),[14],0.134 ng·h/mL
same,Vd/F,[14],247 L
same,half-life,"both sexes, 40 ug, Day 1, 40 μg s.c., n = 1, read-out: t½ (converted)",34.6 min
same,AUC,[6],0.107 ng·h/mL
same,CL/F,[7],7770 mL/min
same,Vd/F,[7],477 L
same,AUC(0-inf),[8],0.139 ng·h/mL
same,AUC(0-t),[8],0.0965 ng·h/mL
same,half-life,"both sexes, 60 ug, Day 1, 60 μg s.c., mean (CV %), read-out: t½ (converted)",41.8 min
same,AUC,[9],0.118 ng·h/mL
same,CL/F,[10],5230 mL/min
same,Vd/F,[10],361 L
same,AUC(0-inf),[11],0.257 ng·h/mL
same,AUC(0-t),[11],0.264 ng·h/mL
same,half-life,"both sexes, 80 ug, Day 1, 80 μg s.c., mean (CV %), read-out: t½ (converted)",46.7 min
same,AUC,[12],0.286 ng·h/mL
same,CL/F,"20 ug, Day 1, 20 μg s.c., n = 1",3620 mL/min
same,CL/F,"40 ug, Day 1, 40 μg s.c., n = 1",4970 mL/min
same,"dose proportionality of AUC(0-∞) (Day 1), AUC(0-τ) (Day 7), Cmax (Day 1) and Cmax (Day 7)",increasing dose from 10 μg to 80 μg,dose proportional
same,"pharmacokinetic behavior, comparison AUC(0-τ) Day 7/AUC(0-∞) Day 1",once-daily subcutaneous administration for 7 days of 60 μg and 80 μg doses,linear
